The values below come from PMC6972889, “Structural insight into small molecule action on Frizzleds” (Nature Communications, 2020).

Assay [1] deals with T1, FZD6 (Nluc–FZD6; SNAP–FZD6; SNAP–FZD6–Rluc8; FLAG–FZD6–Nluc) (Homo sapiens, UniProt O60353).
T1 construct: expressed in SMO-knockout HEK293 cells
T1 sequence (O60353 19-706): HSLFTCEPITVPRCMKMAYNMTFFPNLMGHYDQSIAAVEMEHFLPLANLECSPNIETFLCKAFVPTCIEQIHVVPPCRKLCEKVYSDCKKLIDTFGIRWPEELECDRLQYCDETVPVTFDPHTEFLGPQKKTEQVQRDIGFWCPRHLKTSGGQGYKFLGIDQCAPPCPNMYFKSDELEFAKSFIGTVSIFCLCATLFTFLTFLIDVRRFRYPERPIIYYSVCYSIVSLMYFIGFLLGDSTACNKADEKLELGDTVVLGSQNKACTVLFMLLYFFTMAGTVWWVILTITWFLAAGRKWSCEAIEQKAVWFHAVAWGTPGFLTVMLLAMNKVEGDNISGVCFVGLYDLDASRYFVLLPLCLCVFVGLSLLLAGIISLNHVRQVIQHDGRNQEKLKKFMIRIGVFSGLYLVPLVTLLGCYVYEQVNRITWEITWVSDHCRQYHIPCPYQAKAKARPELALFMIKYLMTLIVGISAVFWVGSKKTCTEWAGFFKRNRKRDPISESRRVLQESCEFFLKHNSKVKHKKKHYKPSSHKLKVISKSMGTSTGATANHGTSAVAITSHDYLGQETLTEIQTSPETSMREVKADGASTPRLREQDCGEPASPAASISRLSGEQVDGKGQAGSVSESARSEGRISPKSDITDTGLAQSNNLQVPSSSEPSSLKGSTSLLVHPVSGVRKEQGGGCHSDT
Put plainly: NanoBRET saturation binding, living SMO-knockout HEK293 cells. In kind it is cell-based. Conditions: Nluc–FZD6, 90 min, 37 °C; labelled compound.

Assay [2] has as its target T2, FZD6–FlAsH–TFP (Homo sapiens, UniProt O60353, INS404FLNCCPGCCMEP).
T2 construct: from FZD6–GFP; expressed in HEK293 cells
T2 sequence (O60353 with tags, fused parts or gaps INS404FLNCCPGCCMEP): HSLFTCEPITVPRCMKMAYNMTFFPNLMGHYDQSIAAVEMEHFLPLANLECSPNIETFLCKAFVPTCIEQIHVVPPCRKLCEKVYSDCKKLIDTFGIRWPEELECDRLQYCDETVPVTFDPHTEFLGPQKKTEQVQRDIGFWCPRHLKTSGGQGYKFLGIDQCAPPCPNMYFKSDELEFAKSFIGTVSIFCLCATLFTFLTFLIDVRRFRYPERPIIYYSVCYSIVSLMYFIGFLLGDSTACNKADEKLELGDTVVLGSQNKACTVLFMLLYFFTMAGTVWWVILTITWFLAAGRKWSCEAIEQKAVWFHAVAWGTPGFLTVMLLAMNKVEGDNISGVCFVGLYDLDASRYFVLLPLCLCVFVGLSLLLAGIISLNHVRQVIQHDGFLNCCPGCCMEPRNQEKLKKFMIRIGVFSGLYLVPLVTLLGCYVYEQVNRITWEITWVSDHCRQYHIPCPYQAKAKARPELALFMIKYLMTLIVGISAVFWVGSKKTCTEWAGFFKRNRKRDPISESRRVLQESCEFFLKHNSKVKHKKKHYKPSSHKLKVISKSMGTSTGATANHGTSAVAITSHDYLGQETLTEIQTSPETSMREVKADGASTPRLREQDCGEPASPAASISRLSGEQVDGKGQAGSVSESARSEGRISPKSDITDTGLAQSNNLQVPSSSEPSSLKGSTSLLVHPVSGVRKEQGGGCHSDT
Put plainly: intramolecular FRET conformational probe in HEK293 cells. In kind it is cell-based.

Assay [3] has as its target T1, FZD6 (Nluc–FZD6; SNAP–FZD6; SNAP–FZD6–Rluc8; FLAG–FZD6–Nluc). Kind of assay: NanoBRET competition binding, living SMO-knockout HEK293 cells. It counts as cell-based.
Assay [4] shares this target. Put plainly: BRET Venus–mGsi recruitment in SMO-knockout HEK293 cells. In kind it is cell-based. Conditions: agonist; bell-shaped curve.
Assay [5] deals with T3, FZD4 (FZD4–Nluc; SNAP–FZD4) (Homo sapiens, UniProt Q9ULV1).
T3 construct: full-length receptor with C-terminal Nluc or N-terminal SNAP; expressed in HEK293-derived cells
T3 sequence (Q9ULV1 37-537): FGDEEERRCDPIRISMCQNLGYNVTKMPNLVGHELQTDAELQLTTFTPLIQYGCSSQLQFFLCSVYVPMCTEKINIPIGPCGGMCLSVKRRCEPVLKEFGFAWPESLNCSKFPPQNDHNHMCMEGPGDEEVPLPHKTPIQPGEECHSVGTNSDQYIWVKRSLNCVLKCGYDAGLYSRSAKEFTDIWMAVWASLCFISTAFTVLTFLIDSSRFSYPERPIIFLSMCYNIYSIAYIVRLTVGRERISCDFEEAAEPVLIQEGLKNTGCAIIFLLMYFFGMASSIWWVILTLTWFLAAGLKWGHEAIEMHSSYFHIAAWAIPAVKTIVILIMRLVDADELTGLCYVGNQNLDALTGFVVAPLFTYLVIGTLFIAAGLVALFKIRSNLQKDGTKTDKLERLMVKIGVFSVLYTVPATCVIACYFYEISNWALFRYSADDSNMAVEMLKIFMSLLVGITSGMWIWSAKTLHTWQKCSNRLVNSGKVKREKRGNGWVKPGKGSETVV
Kind of assay: BRET Venus–mG13 recruitment to FZD4–Nluc. In kind it is cell-based. Conditions: negative control subtype.

Assay [6] addresses T1, FZD6 (Nluc–FZD6; SNAP–FZD6; SNAP–FZD6–Rluc8; FLAG–FZD6–Nluc). Put plainly: BRET Venus–mGsi recruitment to SNAP–FZD6–Rluc8. It counts as cell-based. Conditions: agonist; no bell shape.
Assay [7] concerns the target T4, SMO–Rluc8 (Mus musculus, UniProt P56726).
T4 construct: full-length receptor with C-terminal Rluc8; expressed in HEK293-derived cells
Put plainly: BRET Venus–mGsi recruitment to SMO–Rluc8. It counts as cell-based. Conditions: agonist; no bell shape.

Assay [8] concerns the target T5, FZD6–FlAsH–TFP (human) (UniProt O60353).
T5 sequence (chain, FlAsH (fluorescein arsenical hairpin binder) labelled on the FlAsH-binding motif): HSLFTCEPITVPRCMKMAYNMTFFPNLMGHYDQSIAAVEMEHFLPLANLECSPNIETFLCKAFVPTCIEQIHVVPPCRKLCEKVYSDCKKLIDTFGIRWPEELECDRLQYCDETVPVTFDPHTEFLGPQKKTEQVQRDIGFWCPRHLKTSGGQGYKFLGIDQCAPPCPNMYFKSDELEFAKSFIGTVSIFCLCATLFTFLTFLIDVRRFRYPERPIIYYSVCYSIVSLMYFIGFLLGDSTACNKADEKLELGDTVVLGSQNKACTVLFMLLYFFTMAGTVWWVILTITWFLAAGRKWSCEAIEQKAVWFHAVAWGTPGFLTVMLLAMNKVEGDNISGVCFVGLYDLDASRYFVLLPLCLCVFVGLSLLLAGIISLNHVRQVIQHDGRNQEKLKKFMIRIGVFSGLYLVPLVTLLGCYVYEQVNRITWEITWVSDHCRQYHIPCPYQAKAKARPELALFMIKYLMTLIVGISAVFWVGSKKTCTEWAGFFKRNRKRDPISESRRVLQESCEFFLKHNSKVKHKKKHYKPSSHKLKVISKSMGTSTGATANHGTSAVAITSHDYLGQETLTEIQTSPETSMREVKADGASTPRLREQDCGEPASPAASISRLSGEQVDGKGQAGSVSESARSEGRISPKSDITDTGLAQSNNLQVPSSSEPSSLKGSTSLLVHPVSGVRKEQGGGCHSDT

Counter-ions that a name gives are not always drawn.

T4 sequence (P56726 33-793): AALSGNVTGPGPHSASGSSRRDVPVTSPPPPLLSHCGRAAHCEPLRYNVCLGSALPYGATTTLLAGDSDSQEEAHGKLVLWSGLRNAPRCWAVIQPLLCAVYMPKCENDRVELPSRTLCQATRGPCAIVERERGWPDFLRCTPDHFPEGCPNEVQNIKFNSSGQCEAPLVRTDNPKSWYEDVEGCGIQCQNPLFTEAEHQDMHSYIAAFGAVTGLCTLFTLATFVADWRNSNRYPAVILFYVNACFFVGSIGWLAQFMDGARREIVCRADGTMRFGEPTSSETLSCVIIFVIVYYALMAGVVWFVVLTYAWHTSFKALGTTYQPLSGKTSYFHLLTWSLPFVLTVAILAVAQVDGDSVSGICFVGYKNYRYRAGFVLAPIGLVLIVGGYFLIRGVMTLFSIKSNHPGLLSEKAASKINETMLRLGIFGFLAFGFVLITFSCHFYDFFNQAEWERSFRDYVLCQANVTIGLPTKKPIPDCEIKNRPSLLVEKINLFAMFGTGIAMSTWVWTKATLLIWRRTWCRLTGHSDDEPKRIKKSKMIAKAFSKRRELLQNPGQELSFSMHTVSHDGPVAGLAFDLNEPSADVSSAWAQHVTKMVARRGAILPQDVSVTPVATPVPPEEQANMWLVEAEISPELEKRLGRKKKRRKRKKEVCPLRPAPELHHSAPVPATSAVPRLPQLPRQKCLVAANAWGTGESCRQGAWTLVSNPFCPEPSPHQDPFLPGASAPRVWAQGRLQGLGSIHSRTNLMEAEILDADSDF

For `CC1=C2CC3C(CC=C4C[C@@H](O)CCC43C)C2CCC12O[C@@H]1CC(C)CN(CCNC(=O)CCCCCNC(=O)CCC3=[N+]4C(=Cc5c(C)cc(C)n5[B-]4(F)F)C=C3)C1C2C` (stereo partly drawn) [BODIPY–cyclopamine], the pKd in assay [1] was determined as 6.3 ± 0.1.
Take `CN[C@H]1CC[C@H](N(Cc2cccc(-c3ccncc3)c2)C(=O)c2sc3ccccc3c2Cl)CC1` [SAG1.3, 3-chloro-N-[trans-4-(methylamino)cyclohexyl]-N-[[3-(4-pyridinyl)phenyl]methyl]-benzo[b]thiophene-2-carboxamide dihydrochloride]: the EC50 is 316 nM in assay [2] and “A similar biphasic concentration–response curve was observed” in assay [4]. Further, in assay [3], the Ki is 2510 nM. Besides, the “BRET Venus-mG13 recruitment to FZD4-Nluc” value in assay [5] is recorded as “we did not detect any SAG1.3-induced Venus–mG13 recruitment”.
As to `c1ccc2c(Oc3nc(Nc4ccc(N5CCOCC5)cc4)c4ncn(C5CCCCC5)c4n3)cccc2c1` [purmorphamine, 9-cyclohexyl-N-[4-(4-morpholinyl)phenyl]-2-(1-naphthalenyloxy)-9H-purin-6-amine], the concentration giving a half-maximal response (EC50) result is “concentration-dependent recruitment of Venus–mGsi to SMO–Rluc8 (d) and SNAP–FZD6–Rluc8” in assay [6]; “concentration-dependent recruitment of Venus–mGsi to SMO–Rluc8 and SNAP–FZD6–Rluc8” in assay [7].

B1: recombinant WNT-5A (ligand)
chain: IIGAQPLCSQLAGLSQGQKKLCHLYQDHMQYIGEGAKTGIKECQYQFRHRRWNCSTVDNTSVFGRVMQIGSRETAFTYAVSAAGVVNAMSRACREGELSTCGCSRAARPKDLPRDWLWGGCGDNIDYGYRFAKEFVDARERERIHAKGSYESARILMNLHNNEAGRRTVYNLADVACKCHGVSGSCSLKTCWLQLADFRKVGDALKEKYDSAAAMRLNSRGKLVQVNSRFNSPTTQDLVYIDPSPDYCVRNESTGSLGTQGRLCNKTSEGMDGCELMCCGRGYDQFKTVQTERCHCKFHWCCYVKCKKCTEIVDQFVCK
Turning to B1, in assay [8], the decrease of the intramolecular FRET ratio (FlAsH/TFP) of the FZD6–FRET probe in HEK293 cells with increasing concentrations of WNT-5A; log10EC50 (log10 (ng ml^−1)) was determined as 2.2 and the decrease of the intramolecular FRET ratio (FlAsH/TFP) of the FZD6–FRET probe in HEK293 cells, WNT-5A up to 1000 ng ml^−1; maximum efficacy was found to be 4.9%.
